Results: publication PMC7777204, “Locking mixed-lineage kinase domain-like protein in its auto-inhibited state prevents necroptosis” (Proceedings of the National Academy of Sciences of the …, 2020)

Experiments:
U937 cells [1] = test: U937 necroptosis assay; type: cell-based; settings: Homo sapiens, U-937, huTNFα plus 10 µM zVAD-fmk, read-out: U937 NEC IC50
Procedure: For the Jurkat FADD^−/− Necroptosis assay, compounds were serially diluted in 100% dimethyl sulfoxide (DMSO) (Sigma-Aldrich catalog no. 41641), and 250 nL was transferred to a sterile 384-well microtiter plate (PerkinElmer catalog no. 6007688) via Echo liquid handler (LABCYTE). Five thousand Jurkat FADD ^−/− cells (ATCC catalog no. CRL-2572) in 20 µL of modified Roswell Park Memorial Institute medium (Gibco catalog no. 10491), 10% fetal calf serum (Gibco catalog no. 100500), 1x Anti/Anti (Gibco catalog no. 15240-062), 1x L-Glutamax (Gibco catalog no. 35050-087), and 1% PenStrep (SIGMA catalog no. P4333) were seeded into each well of the prepared assay plate with compound. Cells and compounds were incubated for 30 min at 37 °C (humidified incubator with 5% CO2). After incubation, 5 µL of recombinant human TNFα (huTNFα) (Biotrend catalog no. cyt-223; 10 ng/mL final concentration [f.c.]) was added to the cells, followed by an incubation of 24 h at 37 °C. Following the incubation, the experimental plates were equilibrated to room temperature (30 min) before 25 µL of Cell Titer Glo Luminescent Cell Viability Assay System reagent (Promega catalog no. G7571) was added to the plate wells, incubated at room temperature for ∼10 min. After incubation, the samples were analyzed for luminescence by using an Envision reader (PerkinElmer).
Each assay plate contained wells with “high” and “low” controls. High controls (100% CTL) were defined as cells treated with DMSO, and low controls (0% CTL) were defined as cells treated with 10 ng/mL recombinant huTNFα. IC50 values were calculated based on the percentage of control values using a four-parameter-fitting model.
(§1) MLKL antagonists were also evaluated in a necroptosis assay with U937 cells ([26]) (ATCC catalog no. CRL-1593.2). The assay procedure with U937 cells was as described for the Jurakt FADD^−/− necroptosis assay with the following modifications: 8,000 cells were seeded per well, and, in addition to the recombinant huTNFα, cells were also incubated in the presence of 10 µM (f.c.) carbobenzoxy-valyl-alanyl-aspartyl-[O-methyl]-fluoromethylketone (zVAD-fmk) (Enzo Life Sciences catalog no. ALX-260-020). Low controls (0% CTL) were defined as cells treated with 100 ng/mL recombinant huTNFα plus 10 µM zVAD-fmk.
(§2) All cellular assays were done for Cpd 1, Cpd 2, Cpd 3, Cpd 4, and Cpd 5 in duplicate and in quadruplet for NSA.

U937 cells [2] = test: U937 apoptosis assay; type: cell-based; settings: Homo sapiens, U-937, 100 ng/mL huTNFα plus 3 µM NSA, read-out: U937 APOP IC50
Procedure: as §1
Furthermore, MLKL antagonists were tested in a U937 apoptosis assay in the presence of 3 µM (f.c.) NSA (Tocris catalog no. 5025) and 100 ng/mL (f.c.) recombinant huTNFα in the same way as described for the U937 necroptosis assay. Low controls (0% CTL) were defined as cells treated with 100 ng/mL recombinant huTNFα plus 3 µM NSA.
as §2

U937 cells [3] = test: U937 cytotox assay; type: cell-based; settings: Homo sapiens, U-937, without huTNFα and zVAD-fmk, read-out: U937 TOX IC50
Procedure: as §1
MLKL antagonists were tested in cytotox assays by using Jurkat FADD^−/− and U937 cells according to the assay procedures described for the necroptosis assays, but without treatment with recombinant huTNFα and/or zVAD-fmk. High controls (100% CTL, no effect) were defined as cells treated with DMSO, and low controls (0% CTL) were defined as medium without cells (0% CTL, maximal effect).
as §2

MLKL executioner domain = target: T1, MLKL executioner domain (Homo sapiens, UniProt Q8NB16); test: NMR diffusion experiments (hydrodynamic radius); type: biochemical
T1 construct: 80 µM MLKL N-terminal executioner domain (residues 1 to 154) was used; GST (thrombin cleavage site) (cleaved yes)
T1 sequence (Q8NB16 1-154): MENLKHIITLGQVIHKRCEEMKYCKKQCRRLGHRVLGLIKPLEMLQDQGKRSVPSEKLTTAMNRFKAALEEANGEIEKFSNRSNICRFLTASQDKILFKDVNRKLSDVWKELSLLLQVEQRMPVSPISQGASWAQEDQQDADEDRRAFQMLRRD
Procedure: To further characterize the oligomerized MLKL executioner domain, NMR diffusion experiments were conducted directly succeeding the end of the real-time NMR series (orange dots in Fig. 5A). This was compared with a fresh sample of unliganded MLKL executioner domain (black dots in Fig. 5A).
In a next step, we conducted NMR diffusion experiments with NM concentrations above and below the critical micelle concentration of 6 mM, to find out if the increased hydrodynamic radius of the MLKL executioner domain is dependent on the presence of micelles. […] The presence of 500 µM IP6 and 500 µM Cpd 3 had no influence on the hydrodynamic radius of NM (SI Appendix, Fig. S12). […] Therefore, the oligomerization depends on micelles, and the observed species is most likely a micelle-integrated oligomeric MLKL executioner domain. […]
NMR diffusion experiments were recorded as pseudo two-dimensional experiments with varying gradient strength either as a ^15N-filtered NMR experiment ([42]) (recorded with ^15N-labeled protein). […]
where d is the diffusion constant. […] The hydrodynamic radius was calculated by using the determined diffusion constants of the component of interest (d) and dioxane (ddioxane) and the known hydrodynamic radius of dioxan (2.12 Å) ([23]) using Eq. 4. rH=2.12Å⋅ddioxane/d, [4] […]

IC50 (U937 cells [2]): > 100 µM
Oligomeric state of the MLKL executioner domain (MLKL executioner domain; 12 mM NM + 500 µM IP6 + 500 µM Cpd 3, after 2 d of incubation, 57 Å without compound): completely monomeric
Hydrodynamic radius of the MLKL executioner domain (MLKL executioner domain; complex with 500 µM Cpd 3, 12 mM NM + 50 µM IP6, after time course, 60 Å without Cpd 3, 19 Å unliganded): 30 Å
SMILES: Cn1c(=O)c2c(nc(S(C)(=O)=O)n2C)n(CC#Cc2cccc(O)c2)c1=O [Cpd 3]
IC50 (U937 cells [1]): 0.271 µM
IC50 (U937 cells [3]): 25.5 µM
